Usually IC50 stands for the concentration needed to halve the response being measured.

T1 sequence (P32245 whole entry): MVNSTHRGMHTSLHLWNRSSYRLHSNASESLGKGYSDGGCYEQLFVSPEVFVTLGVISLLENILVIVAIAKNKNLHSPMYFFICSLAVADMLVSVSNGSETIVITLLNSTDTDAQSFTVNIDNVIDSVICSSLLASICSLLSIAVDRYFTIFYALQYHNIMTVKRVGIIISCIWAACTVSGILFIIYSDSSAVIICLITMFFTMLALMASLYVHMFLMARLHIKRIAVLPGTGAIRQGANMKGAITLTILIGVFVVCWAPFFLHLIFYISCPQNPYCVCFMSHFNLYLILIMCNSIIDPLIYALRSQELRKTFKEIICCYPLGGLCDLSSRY

This test concerns the target T1, wild-type human melanocortin 4 receptor (WT-hMC4R) (Homo sapiens, UniProt P32245).
T1 construct: expressed in transfected cells; cDNA from UMR cDNA resource center
The test is described as follows: Cyclic AMP assay (HTRF), antagonist competition against NDP-α-MSH. It is filed as cell-based. The settings on record: HEK293T cells expressing double-tagged WT-hMC4R; cAMP accumulation; 1 hour compound then 4 nM NDP-α-MSH 30 min. How it is done:
Intracellular cyclic 3′-5′ adenosine monophosphate (cAMP) accumulation was measured using a competitive immunoassay based on HTRF (Homogeneous Time-Resolved Fluorescence) technology (cAMP dynamic-2, Cis-Bio).
HEK293T stable cell line expressing double-tagged WT-hMC4R construct were collected and washed in cAMP buffer (1XD-PBS pH 7.4, 0.1% glucose). 40,000 cells/well were then dispensed in 96-well plates in cAMP buffer [1XD-PBS, 1% BSA, 0.1% Glucose, 0.75 mM 3-isobutyl-1methyl-xanthine (IBMX, Sigma)] and incubated either for antagonist competition assay: 1 hour at 37° C. with various concentrations of compound [0.01 nM-10 μM] followed by 30 min incubation at 37° C. with 4 nM of NDP-α-MSH (Sigma) or for agonist assay: 1 hour at 37° C. with various concentrations of compound [0.01 nM-10 μM]. 10,000 cells were transferred in 384-well plates, lysed and incubated with cAMP labeled with the dye d2 and anti-cAMP M-Antibody labeled with Cryptate following the manufacturer's protocol.
Reading of HTRF signal was performed on Artemis TR-FRET plate reader (Cosmo Bio).
All curve fitting was conducted using non-linear regression analyses from PRISM (version 4.0c, GraphPad Inc.) and the determination of Rmax and EC50 or IC50 parameters were obtained from sigmoidal dose-response phase (variable slope) equation.
A cDNA encoding a wild-type human MC4R with a 3 tandem copies of Hemaglutinine (HA) epitote sequence from UMR cDNA resource center was modified using known techniques in the art (e.g., PCR, cloning) to fused in frame at the C-terminal a venus-Yellow Fluorescent Protein (YFP) cDNA.
The resultant cDNA was then subcloned in eukaryotic expression vector, e.g. pcDNA 3.1(+) (Invitrogen).
The double tagged WT-hMC4R was transfected in HEK293T cells with lipofectamine (Invitrogen) following the manufacturer's instructions and permanently transfected clonal cell lines were selected by resistance to the neomycin analog G418.
HEK293T stable cell line expressing wild-type human melanocortin 4 receptor (WT-hMC4R) containing an N-terminal 3xHA epitope tag and an intracellular C-terminal venus-yellow fluorescent protein (v-YFP) were maintained at 37° C. in humidified air containing 5% CO2 in Dulbecoo's modified Eagle's medium (DMEM) supplemented with 10% fetal bovine serum (FBS), 100 U/ml penicillin/streptomycin (DMEM complete/10% FBS). Cells were generally at 70%-80% confluence on the day of assay.
Molecule `COc1ccc(-c2nn3ccc(C(=O)N(CCC(C)C)CCC(C)C)nc3c2/C=C/CN2CCCCC2)cc1` [Example 88, (E)-N,N-Diisopentyl-2-(4-methoxyphenyl)-3-(3-(piperidin-1-yl)prop-1-en-1-yl)pyrazolo[1,5-a]pyrimidine-5-carboxamide] came in with a concentration for half-maximal inhibition (IC50) of 1000 to 5000 nM.

As for `CCCCN(CCCC)C(=O)c1ccn2nc(-c3cc(OC)c(OC)c(OC)c3)c(/C=C/CN3CCCCC3)c2c1` [Example 69], the half-maximal inhibitory concentration (IC50) lay in the range of 500 to 1000 nM.

In turn, `CC(C)CCN(CCC(C)C)C(=O)c1ccn2nc(-c3cccc(C(=O)O)c3)c(CCCN3CCCCC3)c2c1` [Example 74] came in with an IC50 of 1000 to 5000 nM.

On to `CCOC(=O)c1ccc(NC(=O)c2nn3ccc(C(=O)N(CCC(C)C)CCC(C)C)cc3c2/C=C/CN2CCCCC2)cc1` [Example 122], for which the IC50 fell in the range of 1000 to 5000 nM.

In turn, `COc1ccc(Cl)cc1-c1nn2ccc(C(=O)N(CCC(C)C)CCC(C)C)cc2c1CCCN1CCCCC1` [Example 114] gave a concentration for half-maximal inhibition (IC50) of 1000 to 5000 nM.

Turning to `CC(C)CCN(CCC(C)C)C(=S)c1ccn2nc(-c3ccccc3)c(CCCN3CCCCC3)c2c1` [Example 143], the IC50 was in the range of 1000 to 5000 nM.

The molecule `COc1ccc(Nc2nn3ccc(C(=O)N(CCC(C)C)CCC(C)C)cc3c2/C=C/CN2CCCCC2)cc1` [Example 138, (E)-N,N-diisopentyl-2-((4-methoxphenyl)amino)-3-(3-(piperidin-1-yl)prop-1-en-1-yl)pyrazolo[1,5-a]pyridine-5-carboxamide] yielded a concentration for half-maximal inhibition (IC50) below 500 nM.

The molecule `COc1cc(OC)cc(-c2nn3ccc(C(=O)N(CCC(C)C)CCC(C)C)cc3c2CCCN2CCCCC2)c1` [Example 86] showed an IC50 below 500 nM.

Regarding `COc1ccc(-c2nn3ccc(C(=O)N(CCC4CC4)CCC4CC4)cc3c2/C=C/CN2CCCCC2)cc1` [Example 108], the IC50 lay within 1000 to 5000 nM.

The molecule `CCCN(CC1CC1)C(=O)c1ccn2nc(-c3ccc(OC)cc3)c(CCCN3CCCCC3)c2c1` [Example 27] registered a half-maximal inhibitory concentration (IC50) of 5000 to 15000 nM.

The molecule `CCCCN(CCC)C(=O)c1ccn2nc(-c3ccc(OC)cc3)c(/C=C/CN3CCCCC3)c2c1` [Example 25] showed an IC50 of 1000 to 5000 nM.

For the molecule `CC(C)CCN(CCC(C)C)C(=O)c1ccn2nc(-c3ccc(-c4noc(C(F)(F)F)n4)cc3)c(CCCN3CCCCC3)c2c1` [Example 136], the 50% inhibitory concentration (IC50) lay within 1000 to 5000 nM.

Consider `COc1ccc(-c2nn3ccc(C(=O)N(CCC(C)C)CCC(C)C)cc3c2/C=C/CN2CCCCCC2)cc1` [Example 106], for which the concentration for half-maximal inhibition (IC50) lay within 1000 to 5000 nM.

Turning to `CC(C)CCN(CCC(C)C)C(=O)c1ccn2nc(-c3ccc(Cl)cc3)c(/C=C/CN3CCCCC3)c2c1` [Example 10, (E)-2-(4-chlorophenyl)-N,N-diisopentyl-3-(3-(piperidin-1-yl)prop-1-en-1-yl)pyrazolo[1,5-a]pyridine-5-carboxamide], the IC50 was 500 to 1000 nM.

In the case of `COc1ccccc1-c1nn2ccc(C(=O)N(CCC(C)C)CCC(C)C)cc2c1CCCN1CCCCC1` [Example 151], the half-inhibitory concentration (IC50) was 1000 to 5000 nM.

`COc1ccc(Cl)cc1-c1nn2ccc(C(=O)N(CCC(C)C)CCC(C)C)cc2c1C#CCCN1CCCCC1` [Example 97] showed an IC50 of 1000 to 5000 nM.

The molecule `CC(C)CCN(CCC(C)C)C(=O)c1ccn2nc(-c3ccc(C(N)=O)cc3)c(CCCN3CCCCC3)c2c1` [Example 95] returned a 50% inhibitory concentration (IC50) below 500 nM.

`CNC/C=C/c1c(-c2ccc(OC)cc2)nn2ccc(C(=O)N(CCC(C)C)CCC(C)C)cc12` [Example 153] yielded an IC50 of 5000 to 15000 nM.

`COc1ccc(-c2nn3ccc(N(CCC(C)C)CCC(C)C)cc3c2CCCN2CCCCC2)cc1` [Example 131]: the concentration for half-maximal inhibition (IC50) was in the range of 5000 to 15000 nM.

The molecule `COc1ccc(-c2nn3ccc(C(=O)N(CCC(C)C)CCC(C)C)cc3c2CCCN2CCCCC2C)cc1` (stereo not drawn) [Example 168] gave a concentration for half-maximal inhibition (IC50) of 500 to 1000 nM.

Turning to `CCCCCN(CCCCC)C(=O)c1ccn2nc(-c3cc(OC)c(OC)c(OC)c3)c(CCCN3CCCCC3)c2c1` [Example 68], the half-maximal inhibitory concentration (IC50) was in the range of 500 to 1000 nM.

On to `CC(C)CCN(CCC(C)C)C(=O)c1ccn2nc(-c3ccc(/C(N)=N/O)cc3)c(CCCN3CCCCC3)c2c1` [Example 102], for which the IC50 is below 500 nM.

As to `COC(=O)c1ccccc1-c1nn2ccc(C(=O)N(CCC(C)C)CCC(C)C)cc2c1/C=C/CN1CCCCC1` [Example 36], the IC50 fell in the range of 1000 to 5000 nM.

Molecule `CC(=O)c1cccc(-c2nn3ccc(C(=O)N(CCC(C)C)CCC(C)C)cc3c2CCCN2CCCCC2)c1` [Example 33] returned a half-maximal inhibitory concentration (IC50) below 500 nM.

As to `COc1ccc(Cl)cc1-c1nn2ccc(C(=O)N(CCC(C)C)CCC(C)C)cc2c1CCCN1CCCC1` [Example 116], the IC50 was in the range of 1000 to 5000 nM.

For the molecule `CC(C)CCN(CCC(C)C)C(=O)c1ccn2nc(-c3ccc(Br)cc3)c(/C=C/CN3CCOCC3)c2c1` [Example 93], the 50% inhibitory concentration (IC50) was in the range of 5000 to 15000 nM.

In the case of `COc1ccc(-c2nn3ccc(C(=O)N(CCC(C)C)CCC(C)C)cc3c2CCCNCc2ccccc2)cc1` [Example 155], the half-inhibitory concentration (IC50) was 1000 to 5000 nM.

As to `CC(C)CCN(CCC(C)C)C(=O)c1ccn2nc(Br)c(/C=C/CN3CCCCC3)c2c1` [Example 132], the IC50 is 1000 to 5000 nM.

For the molecule `CCN(CC)C/C=C/c1c(-c2ccc(OC)cc2)nn2ccc(C(=O)N(CCC(C)C)CCC(C)C)nc12` [Example 100], the IC50 lay in the range of 5000 to 15000 nM.

Consider `CC(C)CCN(CCC(C)C)C(=O)c1ccn2nc(-c3ccc(C(N)=O)cc3)c(/C=C/CN3CCCCC3)c2c1` [Example 91], for which the IC50 fell in the range of 500 to 1000 nM.

As to `COc1ccc(-c2nn3ccc(C(=O)N(CCC(C)C)CCC(C)C)cc3c2CCCN2CCCCCC2)cc1` [Example 111], the 50% inhibitory concentration (IC50) fell in the range of 1000 to 5000 nM.

Take `CC(C)CCN(CCC(C)C)C(=O)c1ccn2nc(-c3ccc(Br)cc3)c(/C=C/CN3CCCCC3)c2c1` [Example 41, (E)-2-(4-Bromophenyl)-N,N-diisopentyl-3-(3-(piperidin-1-yl)prop-1-en-1-yl)pyrazolo[1,5-a]pyridine-5-carboxamide]: the IC50 is 1000 to 5000 nM.

Regarding `COc1ccc(-c2nn3ccc(C(=O)N(CCC(C)C)CCC(C)C)cc3c2CCCN2CCC(C)CC2)cc1` [Example 146], the IC50 lay in the range of 1000 to 5000 nM.

On to `CC(C)CCN(CCC(C)C)C(=O)c1ccn2nc(-c3cccc(C(N)=O)c3)c(/C=C/CN3CCCCC3)c2c1` [Example 77], for which the half-maximal inhibitory concentration (IC50) was below 500 nM.

For the molecule `CC(=O)c1ccccc1-c1nn2ccc(C(=O)N(CCC(C)C)CCC(C)C)cc2c1/C=C/CN1CCCCC1` [Example 35], the half-maximal inhibitory concentration (IC50) is 1000 to 5000 nM.

In turn, `CCCCN(CCCC)C(=O)c1ccn2nc(-c3cc(OC)cc(OC)c3)c(CCCN3CCCCC3)c2c1` [Example 87] registered a 50% inhibitory concentration (IC50) of 1000 to 5000 nM.

`COC(=O)c1cccc(-c2nn3ccc(C(=O)N(CCC(C)C)CCC(C)C)cc3c2CCCN2CCCCC2)c1` [Example 31] gave an IC50 below 500 nM.

The molecule `CC(C)CCN(CCC(C)C)C(=O)c1ccn2nc(-c3ccccc3)c(/C=C/CN3CCCCC3)c2c1` [Example 58] yielded an IC50 of 500 to 1000 nM.

Turning to `COc1ccc(-c2nn3ccc(C(=O)N(CCC(C)C)CCC(C)C)cc3c2/C=C/CN2CCCCC2C)cc1` (stereo not drawn) [Example 169], the IC50 is 500 to 1000 nM.

Molecule `CC(C)CCN(CCC(C)C)C(=O)c1ccn2nc(-c3ccc(C(=N)N)cc3)c(CCCN3CCCCC3)c2c1` [Example 120] showed an IC50 below 500 nM.

The molecule `CC(C)CCN(CCC(C)C)C(=O)c1ccn2nc(-c3cccc(Cl)c3)c(CCCN3CCCCC3)c2c1` [Example 83, 2-(3-Chlorophenyl)-N,N-diisopentyl-3-(3-(piperidin-1-yl)propyl)pyrazolo[1,5-a]pyridine-5-carboxamide] came in with an IC50 below 500 nM.

As for `CCCCCN(CCCCC)C(=O)c1ccn2nc(-c3ccc(C)cc3)c(/C=C/CN3CCCCC3)c2c1` [Example 65], the IC50 is 1000 to 5000 nM.

As for `COc1ccc(-c2nn3ccc(C(=O)N(CCC(C)C)CCC(C)C)cc3c2CCCN2CCCCC2)cc1OC` [Example 16], the IC50 was below 500 nM.

Molecule `COc1ccc(Cl)cc1-c1nn2ccc(C(=O)N(CCC(C)C)CCC(C)C)cc2c1/C=C/CN1CCCCC1` [Example 113] came in with a concentration for half-maximal inhibition (IC50) of 1000 to 5000 nM.

Molecule `CC(C)CCN(CCC(C)C)C(=O)c1ccn2nc(-c3ccc(C(C)(C)C)cc3)c(/C=C/CN3CCCC3)c2c1` [Example 6] displayed a concentration for half-maximal inhibition (IC50) of 1000 to 5000 nM.

`CC(C)CCN(CCC(C)C)C(=O)c1ccn2nc(C(C)(C)C)c(CCCN3CCCCC3)c2c1` [Example 119] had an IC50 below 500 nM.

Consider `COc1ccc(-c2nn3ccc(C(=O)N(CCC4CC4)CCC4CC4)cc3c2CCCN2CCCCC2)cc1` [Example 130], for which the IC50 is 500 to 1000 nM.

`CCOc1ccc(-c2nn3ccc(C(=O)N(CCC(C)C)CCC(C)C)cc3c2/C=C/CN2CCOCC2)cc1` [Example 147] displayed a half-maximal inhibitory concentration (IC50) of 5000 to 15000 nM.
